# Data as given in patent US11858956B2, “6-aza-nucleoside prodrugs as antiviral agents for treating virus infections” (Southern Research Institute, priority 2020, dated 2024).
# Key:
# Format in all cases: cell-based
# [1] = system: DENV; test: Antiviral activity against DENV in HEK293 cells; conditions: Dengue virus; for EC90: HEK293, read-out: DENV (HEK293 cells) EC90; for log reduction at 10 µM: HEK293, read-out: DENV (HEK293 cells) VTR (virus titer reduction)
# [2] = system: H1N1 strain; test: Antiviral activity against Influenza H1N1 strain in MDCK cells; conditions: Influenza A virus, at 20 μM concentration, 4-6 hours pre-incubation, read-out: H1N1 strain (MDCK cells) VTR (virus titer reduction)
# Description: (§1) The antiviral activity against Influenza viruses (H1N1 and H3N2 strains) evaluated in MDCK cells (4-6 hours pre-incubation with compound) shown in Table 5 below. VTR=Virus titer reduction in log at 20 μM concentration. NT: not tested, ND: not determined.
# [3] = Cytotoxicity (CC50) in HEK293 cells; conditions: human, WNV
# Description: (§2) As used herein, “CC50” is intended to refer to the concentration of a substance (e.g., a compound or a drug) that is required for 50% reduction of cell viability. In one aspect, an CC50 can refer to the concentration of a substance that is required for 50% reduction (i.e., cytotoxicity) in vivo, as further defined elsewhere herein.
# The antiviral activity against Alpharviruses evaluated in HEK293 cells (4 hours pre-incubation with compound before infected with virus) is shown in Table 2 below. VTR=Virus titer reduction in log at 10 μM concentration. NT: not tested, ND: not determined
# [4] = Cytotoxicity (CC50) in MDCK cells; conditions: dog, H1N1
# Description: as §2, §1
# [5] = Cytotoxicity (CC50) in NHDF cells; conditions: human, CHIKV
# Description: as §2
# VTR=Virus titer reduction in log at 10 μM concentration. NT: not tested, ND: not determined.
# [6] = system: WNV; test: Antiviral activity against WNV in HEK293 cells; conditions: West Nile virus; for EC90: HEK293, read-out: WNV (HEK293 cells) EC90; for log reduction at 10 µM: HEK293, read-out: WNV (HEK293 cells) VTR (virus titer reduction)
# [7] = system: ZIKA; test: Antiviral activity against ZIKA in HEK 293 cells; conditions: Zika virus; for EC90: HEK293, read-out: ZIKA (HEK 293 cells) EC90
# [8] = system: H3N2 strain; test: Antiviral activity against Influenza H3N2 strain in MDCK cells; conditions: Influenza A virus, at 20 μM concentration, 4-6 hours pre-incubation, read-out: H3N2 strain (MDCK cells) VTR (virus titer reduction)
# Description: as §1
# [9] = system: VEEV; test: microbe, parasite or virus in culture; conditions: Venezuelan equine encephalitis virus, NHDF; for EC90: read-out: VEEV (NHDF cells) EC90; for log reduction at 10 µM: read-out: VEEV (NHDF cells) VTR (virus titer reduction)
# [10] = system: CHIKV; test: Antiviral activity against CHIKV in NHDF cells; conditions: Chikungunya virus; for EC90: read-out: CHIKV (NHDF cells) EC90; for log reduction at 10 µM: read-out: CHIKV (NHDF cells) VTR (virus titer reduction)
SMILES,EC90 [1] [µM],log reduction at 10 µM [1],log reduction at 20 µM [2],CC50 [3] [µM],CC50 [4] [µM],CC50 [5] [µM],EC90 [6] [µM],log reduction at 10 µM [6],EC90 [7] [µM],log reduction at 20 µM [8],EC90 [9] [µM],log reduction at 10 µM [9],EC90 [10] [µM],log reduction at 10 µM [10],"log reduction at 10 µM ([7]; HEK293, read-out: ZIKA (HEK 293 cells) VTR (virus titer reduction))"
"C[C@H](NP(=O)(OC[C@H]1O[C@@H](n2ncc(=O)[nH]c2=O)[C@H](O)[C@@H]1O)Oc1ccccc1)C(=O)OCc1ccccc1 (mixture of isomers) [Compound 2, Benzyl ((((2R,3S,4R,5R)-5-(3,5-dioxo-4,5-dihydro-1,2,4-triazin-2(3H)-yl)-3,4-dihydroxytetrahydrofuran-2-yl)methoxy)-(phenoxy)phosphoryl)-L-alaninate]",6.9,1.3,2.3,> 40,> 100,> 40,1.3,3,16,0.9,> 10,0,0.4,0,–
"COC(=O)[C@H](C)NP(=O)(OC[C@H]1O[C@@H](n2ncc(=O)[nH]c2=O)[C@H](O)[C@@H]1O)Oc1ccccc1 (mixture of isomers) [Compound 7, methyl ((((2R,3S,4R,5R)-5-(3,5-dioxo-4,5-dihydro-1,2,4-triazin-2(3H)-yl)-3,4-dihydroxytetrahydrofuran-2-yl)methoxy)-(phenoxy)phosphoryl)-L-alaninate]",5,3.2,3.4,40,> 100,> 40,4.3,2.6,7.6,1.6,> 10,0,> 10,0,1.3
